Measurements reported in paper PMC5116675, “The lectin-like protein 1 in Lactobacillus rhamnosus GR-1 mediates tissue-specific adherence to vaginal epithelium and inhibits urogenital pathogens” (Scientific Reports, 2016).

What was measured:
[1] = target: T1, lectin domain of LGR1_Llp1 (lectin-like protein 1) (Lacticaseibacillus rhamnosus, UniProt T1SH75); assay: pull-down with sugar-coated Sepharose 6B beads, SDS-PAGE; type: binding; settings: sugar immobilised on beads; 25 mM MES, 25 mM NaCl, 1% polyvinylalcohol, 4 °C, 2 h; 100 μg/ml lectin domain
T1 construct: gene E6L36_12050; N-terminal L-type lectin domain (PF00139, ca. 250 residues) with 22 amino acids extension, N-His6 tag (pET28a, pCMPG10775), from E. coli BL21(DE3); full protein 680 residues; FITC-labelled for glycan array
T1 sequence (T1SH75 31-352 limits assumed): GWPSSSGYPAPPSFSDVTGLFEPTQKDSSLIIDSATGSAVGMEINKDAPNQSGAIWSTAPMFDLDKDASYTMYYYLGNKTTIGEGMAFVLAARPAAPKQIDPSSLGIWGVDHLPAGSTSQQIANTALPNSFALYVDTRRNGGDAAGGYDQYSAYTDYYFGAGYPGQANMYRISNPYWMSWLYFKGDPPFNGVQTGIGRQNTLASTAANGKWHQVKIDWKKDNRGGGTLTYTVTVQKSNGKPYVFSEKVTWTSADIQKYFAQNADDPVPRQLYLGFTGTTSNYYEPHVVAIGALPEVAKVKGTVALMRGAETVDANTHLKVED

[2] = target: T1, lectin domain of LGR1_Llp1 (lectin-like protein 1); assay: mammalian glycan array v5.[…] (CFG), FITC-labelled lectin domain; type: binding; settings: glycan immobilised on NHS-activated glass slide through amino linker

For `OC[C@H]1OC(O)[C@@H](O)[C@@H](O)[C@@H]1O` (stereo partly drawn) [D-mannose], the “pull-down with sugar-coated Sepharose 6B beads, SDS-PAGE” value [1] was “The purified lectin domain of Llp1 showed the highest binding to mannan and mannose”.
With `CC(=O)N[C@H]1[C@H](O[C@@H]2[C@H](O[C@]3(C(=O)O)C[C@H](O)[C@@H](NC(C)=O)[C@H]([C@H](O)[C@@H](CO)O[C@]4(C(=O)O)C[C@H](O)[C@@H](NC(C)=O)[C@H]([C@H](O)[C@H](O)CO)O4)O3)[C@@H](O)[C@H](O[C@H]3[C@H](O)[C@@H](O)[C@H](OCCN)O[C@@H]3CO)O[C@@H]2CO)O[C@H](CO)[C@H](O)[C@@H]1O[C@@H]1O[C@H](CO)[C@H](O)[C@H](O[C@]2(C(=O)O)C[C@H](O)[C@@H](NC(C)=O)[C@H]([C@H](O)[C@@H](CO)O[C@]3(C(=O)O)C[C@H](O)[C@@H](NC(C)=O)[C@H]([C@H](O)[C@H](O)CO)O3)O2)[C@H]1O` [Neu5Acα2-8Neu5Acα2-3Galβ1-3GalNAcβ1-4(Neu5Acα2-8Neu5Acα2-3)Galβ1-4Glcβ-Sp0] the “mammalian glycan array v5.2 (CFG), FITC-labelled lectin domain” value [2] was “LGR1_Llp1 showed also a capacity to bind to the glycosphingolipid GQ1 receptor”.
